According to publication PMC3350483, “Versatile Toolbox for High Throughput Biochemical and Functional Studies with Fluorescent Fusion Proteins” (PLoS ONE, 2012):
Each block holds one substance with its values, some of them ahead of it.

Key:
GFP-Cbx1 [1] = assay: In vitro histone-tail peptide binding assay on GFP-multiTrap; design: species or system mouse; conditions: for Binding of GFP-Cbx1 to histone-tail peptide (binding ratios, Figure 2A): 0.15 µM TAMRA-labeled peptide per well, RT 20 min
Experimental: In the next assay we determined whether this approach is also feasible to quantify binding affinities between GFP-proteins and peptides or DNA. First, we analyzed histone-tail peptide binding specificities of the chromobox homolog 1, Cbx1, fused with a N-terminal GFP-tag using the GFP-multiTrap. GFP-Cbx1 was purified from mammalian cell lysate, as described above, and the bound protein was incubated with TAMRA-labeled histone-tail peptides. A set of 20 different histone-tail peptides (Table 1) was used in technical triplicates in parallel and GFP served as negative control (GFP data is not shown). After removal of unbound substrate the amounts of protein and histone-tail peptide were determined by fluorescence intensity measurements using a micro plate reader. Binding ratios were calculated by dividing the concentration of bound histone-tail peptide by the concentration of GFP fusion (Figure 2A). […] In addition to fluorescent quantification via a micro plate reader, we scanned the TAMRA signals using a Typhoon scanner (Figure 2B). […] These differences could result from different sensitivities of both methods. […] We incubated GFP-Cbx1 with TAMRA-labeled H3K9me3 in parallel with either biotinylated H3K9me3 or H3K9ac histone-tail peptides. […] In contrast, we could not detect a significant difference in binding ratios between di- and trimethylated H3K9 histone tail peptides using a micro plate reader (Figure 2A). One explanation could be the use of different expression systems. While the binding ratios for the HP1β chromo domain were determined using bacterially expressed protein we used a fluorescent fusion protein derived from mammalian cells. […] To determine the binding affinity of GFP-Cbx1 to H3K9me3, we varied the input amount of histone-tail peptide. We plotted the amount of bound histone-tail peptide as a function of total peptide and fitted the values using GraphPad Prism and nonlinear regression (Figure 2D). The amount of bound H3K9me3 histone-tail peptide increases linearly and saturates at approximately 500 nM of input peptide. […] Here, the input amount of protein/substrate was measured in solution, whereas the bound fraction represents one value on the 96-well surface.
For purification, 100 µL or 50 µL precleared cellular lysate for full-area plates or half-area plates, respectively, was added per well and incubated for 2 hours at 4°C on a GFP-multiTrap plate by continuous shaking. After removing the supernatant, wells were washed twice with 100 µL of washing buffer (WB; 20 mM Tris-HCl pH 7.5, 100–300 mM NaCl, 0.5 mM EDTA) and 100 µL of IP or dilution buffer was added for measurement. The amounts of bound protein were determined by fluorescence intensity measurements with a Tecan Infinite M1000 plate reader (Tecan, Austria). Wavelengths for excitation and emission of GFP are 490±10 nm and 511±10 nm, for RFP are 586±5 nm and 608±10 nm and for YFP 525±5 nm and 538±5 nm, respectively. The concentration of proteins was calculated using calibration curves that were determined by measuring the fluorescence signal of known concentrations of purified GFP, RFP and YFP. […] Bound proteins were eluted with 300 mM Glycin pH 2.5 and subsequently buffered with 1 M Tris pH 7.5. Elution fractions were added to SDS-containing sample buffer (referred to as Bound (B)). Bound proteins were visualized by immunoblotting using the anti-GFP mouse monoclonal antibody (Roche, Germany).
The in vitro histone-tail binding assay was performed as described previously. After one-step purification of GFP fusion proteins the wells were blocked with 100 µL 3% milk solved in TBS-T (0.075% Tween) for 30 minutes at 4°C on a plate vortex, shaking gently. After blocking, the wells were equilibrated in 50 µL IP buffer supplemented with 0.05% Tween. […]

HP1β chromo domain = conditions: bacterially expressed protein; ref [11], [12]; read-out: binding affinities; cited from earlier work
[2] = target: GFP-Cbx1 (chromobox homolog 1 fused with an N-terminal GFP-tag) (mouse) (UniProt P83917); assay: GFP-multiTrap plate binding assay, fluorescence read-out; GFP fusion held on the GFP-multiTrap 96-well plate, blocked with 3% milk; 0.15 µM TAMRA-labeled histone-tail peptide, 20 min at RT, IP buffer (20 mM Tris-HCl pH 7.5, 150 mM NaCl, 0.5 mM EDTA) with 0.05% Tween; ratio of bound peptide over GFP fusion by plate reader
UniProt P83917, sequence (P83917 whole entry, the tested form may be a part): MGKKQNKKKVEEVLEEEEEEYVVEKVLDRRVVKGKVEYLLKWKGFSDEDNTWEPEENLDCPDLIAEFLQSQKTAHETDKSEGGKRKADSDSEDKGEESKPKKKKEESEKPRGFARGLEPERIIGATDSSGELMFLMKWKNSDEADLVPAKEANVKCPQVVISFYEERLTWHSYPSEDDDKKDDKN

GFP-Cbx1 [3] = assay: Competition assay between TAMRA-labeled H3K9me3 and biotinylated histone-tail peptides; assay type: binding, mouse; conditions: biotinylated peptide added in parallel; Figure 2C; three independent experiments; **P<0.003
Experimental: In the next assay we determined whether this approach is also feasible to quantify binding affinities between GFP-proteins and peptides or DNA. First, we analyzed histone-tail peptide binding specificities of the chromobox homolog 1, Cbx1, fused with a N-terminal GFP-tag using the GFP-multiTrap. GFP-Cbx1 was purified from mammalian cell lysate, as described above, and the bound protein was incubated with TAMRA-labeled histone-tail peptides. A set of 20 different histone-tail peptides (Table 1) was used in technical triplicates in parallel and GFP served as negative control (GFP data is not shown). After removal of unbound substrate the amounts of protein and histone-tail peptide were determined by fluorescence intensity measurements using a micro plate reader. Binding ratios were calculated by dividing the concentration of bound histone-tail peptide by the concentration of GFP fusion (Figure 2A). […] In addition to fluorescent quantification via a micro plate reader, we scanned the TAMRA signals using a Typhoon scanner (Figure 2B). […] In contrast, we could not detect a significant difference in binding ratios between di- and trimethylated H3K9 histone tail peptides using a micro plate reader (Figure 2A). […] While the binding ratios for the HP1β chromo domain were determined using bacterially expressed protein we used a fluorescent fusion protein derived from mammalian cells. […]

[4] = target: GFP-PBD (green fluorescent PCNA-binding domain of Dnmt1); assay: GFP-multiTrap plate binding assay, fluorescence read-out; GFP fusion held on the GFP-multiTrap plate, blocked with 3% milk, incubated with HEK293T cellular extract holding the RFP fusion for 30 min at RT; molar ratio of bound RFP fusion over GFP fusion by plate reader
Cbx1 = Cbx1 (UniProt P83917); assay: TAMRA-peptide binding to GFP-multiTrap-immobilised GFP-Cbx1; conditions: reference: H3K9me3 peptide; sites S10
[5] = plate reader, three independent experiments

Binding of GFP-Cbx1 to histone-tail peptide (binding ratios, Figure 2A) (GFP-Cbx1 [1]; [5]): prevents binding
Substance: ARTKQTAR X3 Z2 TGGKAPRKQLK [H3K9me3S10p, TAMRA-labeled H3 tail peptide, trimethylated Lysine 9 and phosphorylated Serine 10]

Binding of GFP-Cbx1 to histone-tail peptide (binding ratios, Figure 2A) (GFP-Cbx1 [1]; [5]): preferentially binds | TAMRA signals of bound peptide by Typhoon scanner (Figure 2B) (GFP-Cbx1 [1]; fluorescence scanner): detected TAMRA signals
Substance: ARTKQTAR X2 S TGGKAPRKQLK [H3K9me2, TAMRA-labeled histone H3 tail peptide, dimethylated Lysine 9]
Kd (HP1β chromo domain): 7 µM

relative binding ratio (substrate/GFP fusion) [2]: 0.0772
Substance: H3 (1–20) histone-tail peptide, TAMRA-labeled

Binding of GFP-Cbx1 to histone-tail peptide (binding ratios, Figure 2A) (GFP-Cbx1 [1]; [5]): preferentially binds | TAMRA signals of bound peptide by Typhoon scanner (Figure 2B) (GFP-Cbx1 [1]; fluorescence scanner): detected TAMRA signals | Input peptide at which bound histone-tail peptide saturates (GFP-Cbx1 [1]; varied input of TAMRA-labeled peptide, Figure 2D, nonlinear regression, three independent experiments): approximately 500 nM
Substance: ARTKQTAR X3 S TGGKAPRKQLK [H3K9me3, TAMRA-labeled histone H3 tail peptide, trimethylated Lysine 9]
Preference in binding by fluorescence scanner (GFP-Cbx1 [1]; fluorescence scanner, no difference seen with micro plate reader): preference for tri- over dimethylated H3K9 | Kd (HP1β chromo domain): 2.5 µM

Effect of competitor on binding of Cbx1 to TAMRA-labeled H3K9me3 (GFP-Cbx1 [3]): did not alter
Substance: biotinylated H3K9ac: biotinylated H3K9ac histone-tail peptide used as competitor

relative binding ratio (substrate/GFP fusion) [4]: 0.005
Substance: mRFP

binding against the reference (Cbx1): lost
Substance: histone H3 1-20 (from UniProt P68431) H3K9me3S10p peptide

Binding of Cbx1 with varied input amount of peptide (Figure 2D) (GFP-Cbx1 [1]; varied input of TAMRA-labeled peptide, plate reader, two independent experiments for H3): could not detect any binding
Substance: ART K QTARKSTGGKAPRKQLK [H3 (1–20), TAMRA-labeled unmodified histone H3 tail peptide, residues 1–20]

relative binding ratio (substrate/GFP fusion) [2]: 0.572
Substance: H3K9me3 histone-tail peptide, TAMRA-labeled

Effect of competitor on binding of Cbx1 to TAMRA-labeled H3K9me3 (GFP-Cbx1 [3]): significantly decreased
Substance: biotinylated H3K9me3: biotinylated H3K9me3 histone-tail peptide used as competitor
